{"source": "patent US4165428A", "about": "“Indoleacetic acid ester derivatives” (Hisamitsu Pharmaceutical Co., Inc., priority 1976, dated 1979)", "key": {"[1]": {"experiment": "Anti-inflammatory activity for oral route (carrageenin edema of hind paw)", "type": "in vivo, male rats of Wistar-strain", "details": "for anti-inflammatory effect for oral route (relative inhibition versus indomethacin): 10mg/kg, percent inhibition divided by that of indomethacin, edema measured after 3 hours", "description": "A group of five male rats of Wistar-strain (body weight 100-150 g) were orally given each test compound suspended in 0.5% tragacanth-saline. After one hour 1.0% carrageenin suspended in the water for injection was injected subcutaneously to a hind paw."}, "[2]": {"experiment": "Acute toxicity (lethal dose)", "type": "in vivo", "details": "mice, estimated from death 72 hours following administration", "description": "Each test compound suspended in 1% tragacanth-saline was administered intraperitoneally or orally to male mice of ddY-strain (body weight 16-24 g). The lethal dose was estimated from the death of animals 72 hours following administration."}, "[3]": {"experiment": "Ulcerogenic activity on rat stomach", "type": "in vivo, Male Wistar rats", "details": "oral, 20 mg/kg, 18 hours after administration; sum of area of erosion and ulcer", "description": "Male Wistar rats weighing 200-220 g were fasted for 24 hours. Indomethacin and the test drugs were suspended with 0.5% tragacanth solution, and these suspensions were given the animals orally at each dose of 20 mg/kg. The animals were sacrificed with ether 18 hours after administration. The excised stomachs were filled with 1% formalin solution and the whole were immersed in the 1% formalin solution for fixation. Thereafter, an incision was made parallel to the greater curvature to examine whether or not an erosion or ulcer occurs. The degree of erosion and ulcer was represented by the sum of area (mm^2)."}}, "data": [{"molecule": "COc1ccc2c(c1)c(CC(=O)OCc1ccccc1F)c(C)n2C(=O)c1ccc(Cl)cc1", "values": [{"measurement": "anti-inflammatory effect for oral route (relative inhibition versus indomethacin)", "setting": "[1]", "result": 0.76}, {"measurement": "acute toxicity for oral route (lethal dose)", "setting": "[2]", "result": "> 500", "unit": "mg/kg"}, {"measurement": "gastric ulcer index", "setting": "[3]", "result": "0.50 ± 0.30", "unit": "mm^2"}]}, {"molecule": "COc1ccc2c(c1)c(CC(=O)OCc1cccc(F)c1)c(C)n2C(=O)c1ccc(Cl)cc1", "values": [{"measurement": "anti-inflammatory effect for oral route (relative inhibition versus indomethacin)", "setting": "[1]", "result": 0.68}, {"measurement": "acute toxicity for oral route (lethal dose)", "setting": "[2]", "result": "> 500", "unit": "mg/kg"}, {"measurement": "gastric ulcer index", "setting": "[3]", "result": "0.50 ± 0.38", "unit": "mm^2"}]}, {"molecule": "COc1ccc2c(c1)c(CC(=O)OCc1ccc(F)cc1)c(C)n2C(=O)c1ccc(Cl)cc1", "values": [{"measurement": "anti-inflammatory effect for oral route (relative inhibition versus indomethacin)", "setting": "[1]", "result": 0.41}, {"measurement": "acute toxicity for oral route (lethal dose)", "setting": "[2]", "result": "> 500", "unit": "mg/kg"}, {"measurement": "gastric ulcer index", "setting": "[3]", "result": "0.13 ± 0.08", "unit": "mm^2"}]}, {"molecule": "COc1ccc2c(c1)c(CC(=O)OCc1ccccc1C)c(C)n2C(=O)c1ccc(Cl)cc1", "values": [{"measurement": "acute toxicity for oral route (lethal dose)", "setting": "[2]", "result": "> 500", "unit": "mg/kg"}, {"measurement": "gastric ulcer index", "setting": "[3]", "result": "0.19 ± 0.13", "unit": "mm^2"}]}, {"molecule": "COc1ccc2c(c1)c(CC(=O)OCc1cccc(C)c1)c(C)n2C(=O)c1ccc(Cl)cc1", "values": [{"measurement": "acute toxicity for oral route (lethal dose)", "setting": "[2]", "result": "200 to 500", "unit": "mg/kg"}, {"measurement": "gastric ulcer index", "setting": "[3]", "result": "0.13 ± 0.08", "unit": "mm^2"}]}, {"molecule": "COc1ccc2c(c1)c(CC(=O)OCc1ccc(C)cc1)c(C)n2C(=O)c1ccc(Cl)cc1", "values": [{"measurement": "anti-inflammatory effect for oral route (relative inhibition versus indomethacin)", "setting": "[1]", "result": 1.00}, {"measurement": "acute toxicity for oral route (lethal dose)", "setting": "[2]", "result": 500, "unit": "mg/kg"}, {"measurement": "gastric ulcer index", "setting": "[3]", "result": "0.88 ± 0.39", "unit": "mm^2"}]}, {"molecule": "COc1ccc2c(c1)c(CC(=O)O)c(C)n2C(=O)c1ccc(Cl)cc1", "note": "[indomethacin, reference compound]", "values": [{"measurement": "mean percent inhibition of carrageenin edema", "setting": "[1]; 10 mg/kg", "result": 41.1, "unit": "%"}, {"measurement": "anti-inflammatory effect for oral route (relative inhibition versus indomethacin)", "setting": "[1]", "result": 1.0}, {"measurement": "acute toxicity for oral route (lethal dose)", "setting": "[2]", "result": "10 to 20", "unit": "mg/kg"}, {"measurement": "gastric ulcer index", "setting": "[3]", "result": "6.75 ± 1.98", "unit": "mm^2"}]}]}
